Data reported in a melting point compilation (Tetko et al.; mined from patent text by program, amines drawn as free bases though some values may be those of a salt).

Row | Structure (SMILES) | melting point [°C]
1 | CCCCCCCCCCCC(=O)N(N=C=S)C(CCCCN)C(=O)O (configuration not stated) | 37 to 39
2 | CC(C)(C)OC(=O)N1CCN(c2ccccc2O)CC1 | 115 to 117
3 | CC(C)c1nn(-c2ccc(C(F)(F)F)cn2)cc1CCCOc1c(F)cccc1CC(=O)O | 140 to 141
4 | CC1=NN(c2ccc(C(=O)O)cc2)C(=O)C1=CNc1ccccc1C(C)C | 270
5 | Cc1ccc2cccc(N3CCNCC3)c2n1 | 163 to 164
6 | O=C1NCC(Cc2ccccc2O)O1 (configuration not stated) | 93 to 95
7 | CC(CCc1nnn[nH]1)Oc1cccc(OCc2ccc3ccccc3n2)c1 (configuration not stated) | 147 to 149
8 | CCOc1cc2c(c(Cl)c1O)Sc1ccccc1N2 | 186 to 189
9 | Cc1nn(-c2ccccc2)c(Nc2ccccc2)c1CC(=O)O | 111 to 113
10 | Cc1cc2c(cc1Br)C(C)(C)CCC2(C)C | 73
11 | CSc1ccc2cc(O)ccc2c1 | 120 to 122
12 | COC(=O)n1cc2c(c1)C(OC(C)=O)N=C(c1ccccc1Cl)c1cc(Cl)ccc1-2 (configuration not stated) | 175 to 177
13 | CC(C)N1C(=O)NC(c2ccc3c(c2)OCO3)c2cc3c(cc21)OCCO3 (configuration not stated) | 197 to 200
14 | COC(=O)c1ccccc1NC(=O)c1ccc(OC)cc1 | 122 to 124
15 | CC(C)N1CCC(C2=C(C#N)C(c3cccc4nonc34)c3c[nH]nc3N2)CC1 (configuration not stated) | 260
16 | CN1CCC(c2c[nH]c3ccc(OS(=O)(=O)c4ccc(Cl)cc4)cc23)CC1 | 182 to 184
17 | COC(=O)CSc1nc(Nc2ccc(N3CCOCC3)cc2)ncc1[N+](=O)[O-] | 188 to 190
18 | Cc1oc(-c2ccc(Cl)cc2)nc1CO | 130 to 131
19 | COc1cc2c(cc1-c1c(C)nn(C)c1C)-c1c(-c3cccs3)c3c(n1CC2)C(=O)N(C(C)C)CCNC3 | 250 to 252
20 | CS(=O)c1nnc(-c2ccc3occ(-c4ccc(OC(F)(F)F)cc4)c3c2)o1 (configuration not stated) | 134 to 135
21 | CS(=O)(=O)c1ccc(C(CC2CCCC2)C(=O)Nc2nccs2)cc1 (configuration not stated) | 61 to 63
22 | O=C(O)CSc1nc(-c2ccccc2)c(-c2ccccc2)o1 | 66 to 68
23 | CCOC(=O)Cc1ccc(CNC(=O)C=Cc2ccc3[nH]cc(CC#N)c3c2)cc1 | 125 to 130
24 | COc1c(CC#N)cccc1CC#N | 58 to 59.5
25 | CNCC1Cc2cc(-c3ccccc3)cc(-c3ccccc3OC)c2O1 (configuration not stated) | 140 to 143
26 | CCCOc1ccc(C)cc1C(N)=O | 112 to 115

Row | Structure (SMILES) | melting point [°C]
27 | CCn1cc(C(=O)O)c(=O)c2ccc(C=NNc3ccc(O)cc3)nc21 | 300
28 | CC(C)(C)[C@@H]1OC(=O)[C@@H]2[C@H]1C2(C)C | 113
29 | O=C(O)CCc1cccc(OCc2cn(-c3ccc(C(F)(F)F)cn3)nc2C2CCCCC2)c1 | 94 to 95
30 | O=C(CCc1ccncc1)Nc1cccc(-c2ccnc3c(C(=O)c4cccs4)cnn23)c1 | 176 to 181
31 | O=C1c2cscc2C(=O)c2cscc21 | 340
32 | CN1CC(CCN2CCN(c3ccc(F)cc3)CC2)OC1=O (configuration not stated) | 82 to 84
33 | CCOC(=O)C=CC(C)=CC=C(C)C=CC1=C(C)CCCC1(C)C | 65 to 66
34 | CCOc1ccc(C2=CC(C)(C)Oc3c(OCC)cc(Cc4cnc(N)nc4N)cc32)cc1 | 186 to 188
35 | COC(=O)c1nn(-c2ccc(Cl)cc2Cl)c(-c2ccc(Cl)cc2)c1C | 133
36 | Cc1cc2[nH]nnc2c(Br)c1C | 255 to 262
37 | Nc1cc(O)c(Cn2nc(-c3ccc(C(F)(F)F)cc3)oc2=O)cc1Cl | 210 to 212
38 | FC(F)(F)c1nc(-c2ccc(NCc3ccccc3)cn2)no1 | 81 to 84
39 | CC(C)OC(=O)N1CCN(c2ccc3oc(-c4ccc(S(C)(=O)=O)cc4F)nc3c2)CC1 | 231 to 234
40 | O=C(O)c1ccc(OC(F)F)c2oc3ccc([N+](=O)[O-])cc3c12 | > 270
41 | CCN1C(=O)N(c2cc(OC)cc(OC)c2Cl)Cc2cnc(SC)nc21 | 189 to 191
42 | NC1=Nc2ncccc2OC1 | 173 to 174
43 | CCCCCCCCCCCCCCc1cccc(O)c1 | 38 to 40
44 | CN(C(=O)c1ccc(-n2cc3ccccc3n2)cc1)C1CCN(C(=O)OC(C)(C)C)CC1 | 176 to 177
45 | CN1CCC23c4c5ccc(OCCCCN)c4CC1C2C=CC(O)C3O5 (configuration not stated) | 140 to 142
46 | Nc1ccc(C2=NNC(=O)CC2)cc1N | 226
47 | O=[N+]([O-])CSc1ccc(Oc2ccccc2)cc1 | 100 to 102
48 | c1ccc(C(c2ccccc2)(c2cncnc2)n2ccnc2)cc1 | 161
49 | Cn1c(SCC(=O)C23CC4CC(CC(C4)C2)C3)nc2ccccc21 | 146 to 148
50 | CCN(C(=O)OC(C)(C)C)C(Cc1ccccc1)C(=O)NC(CCSC)C(=O)NCC(=O)NC(Cc1ccccc1)C(=O)NC1C2CC3CC(C2)CC1C3 (configuration not stated) | 175 to 178
51 | CN(C)C=Cc1cc(-n2cncn2)ncc1[N+](=O)[O-] | 225 to 228
52 | COc1ccc(C(=O)c2ccon2)cc1 | 71 to 73

Row | Structure (SMILES) | melting point [°C]
53 | Nc1nc2ccccc2c2c1ncn2CCOCc1cc2ccccc2o1 | 201 to 203
54 | O=Cc1ccc(-c2nc3ccccn3n2)cc1 | 246 to 247
55 | CC1(C)OC(C=Cc2ccc(Cl)c(Cl)c2)=CC1=O | 100 to 102
56 | Cn1c(C(F)(F)F)ccc(-c2cc(N)c(Cl)cc2F)c1=O | 155 to 157
57 | COC(=O)[C@H](CC(C)C)NC(=O)[C@@H](CCSC)NC(=O)OC(C)(C)C | 61 to 64
58 | CCCc1nc2nccc(C)c2[nH]1 | 110 to 112
59 | O=C1c2cc([N+](=O)[O-])cc3cc([N+](=O)[O-])cc(c23)C(=O)N1O | 317 to 320
60 | O=C(NCc1ccccc1)c1oc(=O)c2ncccc2c1-c1ccccc1 | 188 to 189
61 | CCCN(CCC)C(=O)c1n[nH]c2c(=O)[nH]c3cc(Cl)ccc3c(=O)c12 | 270
62 | CCn1c(=O)c2[nH]c(/C=C/c3cccc(C(F)(F)F)c3)nc2n(CC)c1=O | > 270
63 | CCOC(=O)c1cn(C2CC2)c2nc(N3C[C@@H](CNC(C)=O)[C@H](F)C3)c(F)cc2c1=O (relative stereo) | 211 to 213
64 | Nc1c2c(nc3ccccc13)CCCC2=O | 236 to 238
65 | CCSC(=O)CCS(=O)CC (configuration not stated) | 35.5 to 36
66 | O=C1CC(c2ccccc2)Nc2ccccc2N1Cc1ccccc1 (configuration not stated) | 132 to 133
67 | Cn1ncc(N2CCN(CC=Cc3ccccc3)CC2)c(Cl)c1=O | 98 to 100
68 | NC(=O)c1ncn(CCCc2ccc(OCc3coc(/C=C/c4ccccc4)n3)cc2)c1C(N)=O | 194 to 195
69 | COc1ccc(C(=O)COc2ccc3oc(C(=O)c4ccc(OC)cc4)c(C)c3c2)cc1 | 155 to 157
70 | O=C1CC(C(=O)Nc2ccccc2O)CN1 (configuration not stated) | 133 to 135
71 | COC(=O)c1cc(C(=O)O)c2c(Cl)cc(Cl)cc2n1 | 260 to 262
72 | O=C(O)c1ccccc1C(=O)c1ccncc1 | 191 to 193
73 | Nc1nc(N2CCN(CCCC3(c4ccc(F)cc4)OCCO3)CC2)ccc1[N+](=O)[O-] | 117 to 118
74 | CC(C)c1nc(CCOCc2ccccc2)n(C)c1Sc1cc(Cl)cc(Cl)c1 | 101 to 103
75 | CCOC(=O)Cn1nc(-c2ccc(OC)cc2)cc(C(=O)NC)c1=O | 141 to 142
76 | N#CC1(c2ccc(OC(F)F)c(OCC3CC3)c2)CCC(=C2SCCCS2)CC1 (configuration not stated) | 84 to 85
77 | Cc1nc2c(s1)CCN(C(=O)c1ccc(NC(=O)c3ccccc3-c3ccccc3)cc1)c1ccccc1-2 | 165 to 168
78 | CC12CCC(O)CC1=CCC1C2CCC2(C)C(n3cccn3)=CCC12 (configuration not stated) | 197 to 199

Row | Structure (SMILES) | melting point [°C]
79 | Cc1c(-c2ccc(Cl)nc2)sc2nc(N)[nH]c(=O)c12 | 230 to 250
80 | COc1ccc(C=NO)c(Cl)c1O | 174 to 176
81 | CC(=O)CCCCC(=O)Nc1ccc(CCC(=O)O)cc1 | 148 to 160
82 | O=C1N(Cc2ccc(OCCO)cc2)c2ccccc2C12COc1cc3c(cc12)OCCO3 (configuration not stated) | 196 to 197
83 | Cc1oc(-c2ccccc2)nc1CCOc1ccc(CCCO)cc1 | 99 to 100
84 | CCOC(=S)c1cnc(C)nc1N | 130 to 131
85 | O=C(Nc1ccc(C(=O)O)cc1)OCc1cn(-c2cc3cc(C(=O)O)c(=O)[nH]c3cc2C(F)(F)F)cn1 | 218 to 220
86 | Cc1cc2c(cc1N(C)CC(C)C)N=C(c1cccc(-n3ncnc3CO)c1)CC(=O)N2 | 191
87 | Cn1cc(C2=C(c3c4n(c5ccccc35)CCC(CNC(=O)c3ccccc3)C4)C(=O)NC2=O)c2ccccc21 (configuration not stated) | 297 to 303
88 | ON=C(c1ccccc1)c1ccc(C(=NO)c2ccc(C(=NO)c3ccccc3)cc2)cc1 | 224 to 225
89 | C=CCn1c(=O)n(CCN2CCN(c3ccccc3OC)CC2)c(=O)c2cscc21 | 131 to 132
90 | CON=C(Nc1nc(OC)nc(OC)n1)NS(=O)(=O)c1ccccc1S(=O)(=O)OC | 148 to 150
91 | CCCCCCCCCCCCCCCC(=O)Oc1c(F)c(F)c(F)c(F)c1F | 42 to 44
92 | OC(CN1CCNC1=S)c1ccccn1 (configuration not stated) | 120
93 | O=C(c1ccc2nc[nH]c(=O)c2c1)c1ncc2ccccn12 | 289
94 | O=c1[nH]c2ccccc2c(=O)n1CCN1CCC(c2noc3cc(F)ccc23)CC1 | 253
95 | O=c1cc[nH]c2c([N+](=O)[O-])cc(C(F)(F)F)cc12 | 153 to 156
96 | CCN1CC(=O)N(C(C)c2ccc(F)cc2)C1=S (configuration not stated) | 93 to 95
97 | NCC(=O)NCCCCNc1cccc2c1C(=O)c1ccccc1C2=O | 206
98 | NS(=O)(=O)Nc1cccc(-c2cccc(-c3nc(-c4ccc(C(F)(F)F)cc4)cc(C(F)(F)F)n3)c2)c1 | 174
99 | CCCCCCCCCCCCc1ccc2nc3c(c(O)c2c1)CCCC3 | 225 to 226
100 | CCC(=O)C1=C(O)CC(c2ccc3c(c2)CCCC3)CC1=O (configuration not stated) | 87
101 | COC(=O)c1ccc2c(c1)C(=O)NC(C(Cl)(Cl)Cl)O2 (configuration not stated) | 218 to 220
102 | COc1ccc(N(Cc2cccc3ccccc23)c2ccccc2)cc1 | 154 to 159
